For experiment [1], the target named is T1, NUAK family SNF1-like kinase 2 (Homo sapiens, UniProt Q9H093).
T1 sequence (Q9H093 whole entry): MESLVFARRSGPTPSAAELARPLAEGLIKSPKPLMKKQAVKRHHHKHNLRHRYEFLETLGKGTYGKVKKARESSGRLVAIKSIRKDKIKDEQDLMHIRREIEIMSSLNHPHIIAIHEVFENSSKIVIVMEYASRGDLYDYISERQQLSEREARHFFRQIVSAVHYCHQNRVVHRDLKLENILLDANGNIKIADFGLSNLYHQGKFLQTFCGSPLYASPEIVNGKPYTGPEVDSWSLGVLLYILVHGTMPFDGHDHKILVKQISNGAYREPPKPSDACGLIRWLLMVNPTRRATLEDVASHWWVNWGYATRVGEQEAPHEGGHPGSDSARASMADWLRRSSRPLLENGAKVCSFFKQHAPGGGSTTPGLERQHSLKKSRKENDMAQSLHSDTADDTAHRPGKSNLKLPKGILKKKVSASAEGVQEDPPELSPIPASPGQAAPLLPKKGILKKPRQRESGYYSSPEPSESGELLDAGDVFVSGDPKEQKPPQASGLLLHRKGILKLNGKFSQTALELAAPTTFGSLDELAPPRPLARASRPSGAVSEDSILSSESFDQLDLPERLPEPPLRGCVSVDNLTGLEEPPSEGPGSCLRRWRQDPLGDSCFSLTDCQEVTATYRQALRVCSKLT

For experiment [2], the target named is T2, Very long-chain specific acyl-CoA dehydrogenase, mitochondrial (Homo sapiens, UniProt P49748).
T2 sequence (P49748 whole entry): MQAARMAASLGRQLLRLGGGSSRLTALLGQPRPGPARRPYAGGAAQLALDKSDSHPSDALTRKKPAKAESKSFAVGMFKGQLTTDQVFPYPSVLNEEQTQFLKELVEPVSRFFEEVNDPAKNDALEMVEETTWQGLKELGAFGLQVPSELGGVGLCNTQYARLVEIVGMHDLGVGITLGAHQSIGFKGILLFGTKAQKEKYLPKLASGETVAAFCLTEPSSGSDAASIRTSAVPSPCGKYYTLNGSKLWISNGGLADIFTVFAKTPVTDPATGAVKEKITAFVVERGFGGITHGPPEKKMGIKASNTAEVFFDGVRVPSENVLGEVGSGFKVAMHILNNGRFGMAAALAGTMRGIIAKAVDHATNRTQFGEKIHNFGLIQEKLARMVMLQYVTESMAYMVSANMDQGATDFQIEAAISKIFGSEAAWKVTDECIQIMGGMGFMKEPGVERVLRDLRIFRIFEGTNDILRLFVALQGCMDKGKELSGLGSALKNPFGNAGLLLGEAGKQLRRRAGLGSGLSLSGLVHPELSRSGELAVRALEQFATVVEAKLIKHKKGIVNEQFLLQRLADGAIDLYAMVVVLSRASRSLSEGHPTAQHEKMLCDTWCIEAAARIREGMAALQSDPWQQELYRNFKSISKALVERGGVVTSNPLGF

The target in experiment [3] is T3, Dual specificity mitogen-activated protein kinase kinase 5 (Homo sapiens, UniProt Q13163).
T3 sequence (Q13163 whole entry): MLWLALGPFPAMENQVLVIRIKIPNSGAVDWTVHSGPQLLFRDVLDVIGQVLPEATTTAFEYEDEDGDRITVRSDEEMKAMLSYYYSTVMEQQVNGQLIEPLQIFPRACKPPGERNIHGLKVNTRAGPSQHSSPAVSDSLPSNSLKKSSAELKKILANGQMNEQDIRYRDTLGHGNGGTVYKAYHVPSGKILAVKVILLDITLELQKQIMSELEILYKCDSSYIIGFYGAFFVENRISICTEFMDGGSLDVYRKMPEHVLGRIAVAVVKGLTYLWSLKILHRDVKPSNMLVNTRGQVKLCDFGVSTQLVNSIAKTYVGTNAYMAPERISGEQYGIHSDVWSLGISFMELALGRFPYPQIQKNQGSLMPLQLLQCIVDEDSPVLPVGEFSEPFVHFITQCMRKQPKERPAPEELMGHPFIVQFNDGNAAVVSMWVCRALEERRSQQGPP

Experiment [4] has as its target cAMP-dependent protein kinase type II-alpha regulatory subunit (Homo sapiens, UniProt P13861).
For experiment [5], the target named is T4, Serine/threonine-protein kinase STK11 (Homo sapiens, UniProt Q15831).
T4 sequence (Q15831 whole entry): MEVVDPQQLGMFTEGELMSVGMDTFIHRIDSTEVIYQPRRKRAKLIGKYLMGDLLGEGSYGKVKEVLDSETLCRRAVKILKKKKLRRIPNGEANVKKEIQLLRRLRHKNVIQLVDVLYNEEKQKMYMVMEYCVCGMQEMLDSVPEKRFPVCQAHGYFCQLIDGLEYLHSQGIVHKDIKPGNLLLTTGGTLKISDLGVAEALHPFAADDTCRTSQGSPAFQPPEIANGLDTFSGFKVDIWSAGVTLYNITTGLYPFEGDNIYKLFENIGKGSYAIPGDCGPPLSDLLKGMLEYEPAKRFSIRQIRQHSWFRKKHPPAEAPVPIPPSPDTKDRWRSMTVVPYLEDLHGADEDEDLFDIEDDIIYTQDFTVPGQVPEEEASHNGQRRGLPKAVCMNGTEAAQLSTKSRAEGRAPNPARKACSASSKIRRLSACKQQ

The target of experiment [6] is Serine/threonine-protein kinase SIK3 (Homo sapiens, UniProt Q9Y2K2).

Activity calls are given as the source filed them.

A word on the Kd: it is the concentration at which binding is half-saturated.
Further: in the data inactive means no Kd found up to 30 µM.

Chain of Serine/threonine-protein kinase SIK3 (Q9Y2K2 whole entry): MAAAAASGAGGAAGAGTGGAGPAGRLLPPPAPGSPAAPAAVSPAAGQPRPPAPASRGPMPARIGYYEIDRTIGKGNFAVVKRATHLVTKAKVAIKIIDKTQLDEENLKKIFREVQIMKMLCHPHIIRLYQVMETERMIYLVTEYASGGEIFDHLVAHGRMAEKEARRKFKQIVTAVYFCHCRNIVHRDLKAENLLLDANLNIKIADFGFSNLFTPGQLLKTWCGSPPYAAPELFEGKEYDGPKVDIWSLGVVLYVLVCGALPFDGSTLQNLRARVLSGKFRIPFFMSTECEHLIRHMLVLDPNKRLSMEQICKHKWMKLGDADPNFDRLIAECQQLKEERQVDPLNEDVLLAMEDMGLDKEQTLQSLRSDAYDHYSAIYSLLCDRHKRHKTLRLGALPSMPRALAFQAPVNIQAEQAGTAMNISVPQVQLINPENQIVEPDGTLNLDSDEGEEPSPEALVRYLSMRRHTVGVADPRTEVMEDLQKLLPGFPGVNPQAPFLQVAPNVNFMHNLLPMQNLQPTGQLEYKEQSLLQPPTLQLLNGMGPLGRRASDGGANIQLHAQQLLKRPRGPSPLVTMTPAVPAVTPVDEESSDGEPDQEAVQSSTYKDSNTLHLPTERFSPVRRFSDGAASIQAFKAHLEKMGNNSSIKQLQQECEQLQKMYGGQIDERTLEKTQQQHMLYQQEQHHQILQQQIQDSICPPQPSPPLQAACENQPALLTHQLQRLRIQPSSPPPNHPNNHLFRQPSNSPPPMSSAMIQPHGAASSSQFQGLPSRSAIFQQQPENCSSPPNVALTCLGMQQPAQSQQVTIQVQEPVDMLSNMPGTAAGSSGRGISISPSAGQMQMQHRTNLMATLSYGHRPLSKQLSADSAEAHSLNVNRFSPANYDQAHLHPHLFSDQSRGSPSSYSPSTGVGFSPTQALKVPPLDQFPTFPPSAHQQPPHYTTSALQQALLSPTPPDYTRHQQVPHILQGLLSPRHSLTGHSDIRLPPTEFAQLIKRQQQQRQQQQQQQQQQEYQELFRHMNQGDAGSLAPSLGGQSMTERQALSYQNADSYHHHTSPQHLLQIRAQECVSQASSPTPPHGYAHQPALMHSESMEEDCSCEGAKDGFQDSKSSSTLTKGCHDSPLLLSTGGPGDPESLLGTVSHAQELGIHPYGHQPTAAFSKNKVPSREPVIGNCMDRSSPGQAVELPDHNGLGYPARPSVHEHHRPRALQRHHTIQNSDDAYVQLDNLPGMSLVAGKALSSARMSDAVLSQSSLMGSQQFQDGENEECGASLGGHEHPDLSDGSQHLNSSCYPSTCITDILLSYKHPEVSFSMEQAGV
Chain of cAMP-dependent protein kinase type II-alpha regulatory subunit (P13861 whole entry): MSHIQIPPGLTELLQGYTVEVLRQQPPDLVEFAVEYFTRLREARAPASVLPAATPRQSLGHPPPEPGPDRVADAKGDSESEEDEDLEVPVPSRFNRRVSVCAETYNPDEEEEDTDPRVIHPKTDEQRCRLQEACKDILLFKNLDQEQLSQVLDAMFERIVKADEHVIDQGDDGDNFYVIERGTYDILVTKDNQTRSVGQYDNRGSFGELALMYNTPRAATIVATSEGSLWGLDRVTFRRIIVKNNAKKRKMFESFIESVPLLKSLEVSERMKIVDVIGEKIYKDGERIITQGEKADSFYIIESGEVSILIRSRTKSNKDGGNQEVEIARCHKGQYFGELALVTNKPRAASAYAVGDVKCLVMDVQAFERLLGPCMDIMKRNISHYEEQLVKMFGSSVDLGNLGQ

As for `O=C(O)c1ccc2c(c1)nc(Nc1cccc(Cl)c1)c1ccncc12` [SILMITASERTIB], the Kd in experiment [1], in experiment [2], in experiment [3], in experiment [4], in experiment [5] and in experiment [6] was > 30 µM (inactive) in each case.
In the case of `COc1cc2ncnc(Nc3ccc(O)cc3)c2cc1OC` [WHI-P131], the Kd in experiment [1], in experiment [2], in experiment [3], in experiment [4], in experiment [5] and in experiment [6] was > 30 µM (inactive) each time.
Take `O=C(Nc1ccc(OC(F)(F)F)cc1)c1sccc1NCc1ccnc2ccccc12` [OSI-930]: the Kd in experiment [1], in experiment [2], in experiment [3], in experiment [4], in experiment [5] and in experiment [6] was > 30 µM (inactive) throughout.
On to `CNC(=O)c1ccc(Nc2ncc(C(F)(F)F)c(NCc3nccnc3N(C)S(C)(=O)=O)n2)cc1` [DEFACTINIB], for which the Kd in experiment [1] was 0.454 µM; in experiment [2] it was > 30 µM (inactive); in experiment [3] it was > 30 µM (inactive); in experiment [4], > 30 µM (inactive); in experiment [5], > 30 µM (inactive); in experiment [6], > 30 µM (inactive).
`O=S(=O)(c1cccc2c(O)nccc12)N1CCCNCC1` [HYDROXYFASUDIL]: the Kd in experiment [1], in experiment [2], in experiment [3], in experiment [4], in experiment [5] and in experiment [6] was > 30 µM (inactive) throughout.
With `CN(c1ncccc1CNc1nc(Nc2ccc3c(c2)CC(=O)N3)ncc1C(F)(F)F)S(C)(=O)=O` [PF-00562271], the Kd in experiment [1] is > 30 µM (inactive); in experiment [2] it was > 30 µM (inactive); in experiment [3] it was > 30 µM (inactive); in experiment [4] it was > 30 µM (inactive); in experiment [5], 0.626 µM (active); in experiment [6] it was > 30 µM (inactive).
As for `CN1CCN(c2nc(C3=C(c4c[nH]c5ccccc45)C(=O)NC3=O)c3ccccc3n2)CC1` [SOTRASTAURIN], the Kd in experiment [1], in experiment [2], in experiment [3], in experiment [4], in experiment [5] and in experiment [6] was > 30 µM (inactive) throughout.
For `N#CCNC(=O)c1ccc(-c2ccnc(Nc3ccc(N4CCOCC4)cc3)n2)cc1` [MOMELOTINIB], the Kd in experiment [1] is > 30 µM (inactive); in experiment [2], > 30 µM (inactive); in experiment [3], > 30 µM (inactive); in experiment [4], > 30 µM (inactive); in experiment [5], > 30 µM (inactive); in experiment [6], 0.859 µM (active).
Consider `CCN1CCN(Cc2ccc(Nc3ncc(F)c(-c4cc(F)c5nc(C)n(C(C)C)c5c4)n3)nc2)CC1` [ABEMACICLIB], for which the Kd in experiment [1], in experiment [2], in experiment [3], in experiment [4], in experiment [5] and in experiment [6] was > 30 µM (inactive) throughout.
On to `C[C@@H]1COC(Nc2ccc3ncnc(Nc4ccc(OCc5nccs5)c(Cl)c4)c3c2)=N1` [VARLITINIB], for which the Kd in experiment [1], in experiment [2], in experiment [3], in experiment [4], in experiment [5] and in experiment [6] was > 30 µM (inactive) each time.
On to `NC(=O)c1ccc(N(C(N)=O)c2c(F)cccc2F)nc1-c1ccc(F)cc1F` [VX-702], for which the Kd in experiment [1], in experiment [2], in experiment [3], in experiment [4], in experiment [5] and in experiment [6] was > 30 µM (inactive) throughout.
As to `C=CC(=O)Nc1cc(Nc2nccc(-c3cn(C)c4ccccc34)n2)c(OC)cc1N(C)CCN(C)C` [OSIMERTINIB], the Kd in experiment [1], in experiment [2], in experiment [3], in experiment [4], in experiment [5] and in experiment [6] was > 30 µM (inactive) throughout.
Consider `C=CCN(/C=C1/C(=O)O[C@H](COC)[C@@]2(C)C1=C(O)C(=O)C1=C2[C@H](OC(C)=O)C[C@]2(C)C(=O)CC[C@@H]12)CC=C` [SONOLISIB], for which the Kd in experiment [1] is > 30 µM (inactive); in experiment [2], > 30 µM (inactive); in experiment [3], > 30 µM (inactive); in experiment [4] it was > 30 µM (inactive); in experiment [5], > 30 µM (inactive); in experiment [6] it was 0.011 µM.
In the case of `CCN(CCCOc1ccc2c(Nc3cc(CC(=O)Nc4cccc(F)c4)n[nH]3)ncnc2c1)CCOP(=O)(O)O` [BARASERTIB], the Kd was > 30 µM (inactive) in experiment [1]; > 30 µM (inactive) in experiment [2]; 0.082 µM (active) in experiment [3]; > 30 µM (inactive) in experiment [4]; > 30 µM (inactive) in experiment [5]; > 30 µM (inactive) in experiment [6].
Take `COCCN1CCN(Cc2ccc(-c3n[nH]c4c3C(=O)c3c(NC(=O)NN5CCOCC5)cccc3-4)cc2)CC1` [RGB-286638]: the Kd in experiment [1] is > 30 µM (inactive); in experiment [2], > 30 µM (inactive); in experiment [3] it was 0.535 µM (active); in experiment [4] it was > 30 µM (inactive); in experiment [5] it was > 30 µM (inactive); in experiment [6], > 30 µM (inactive).
Regarding `COc1cccc(Nc2ncnn3ccc(CN4CC[C@@H](N)[C@H](O)C4)c23)c1` [BMS-690514], the Kd is > 30 µM (inactive) in experiment [1]; > 30 µM (inactive) in experiment [2]; 0.972 µM (active) in experiment [3]; > 30 µM (inactive) in experiment [4]; > 30 µM (inactive) in experiment [5]; > 30 µM (inactive) in experiment [6].
Consider `Cn1c(=O)c(F)c(Nc2ccc(I)cc2F)c2c(=O)n(C[C@@H](O)CO)cnc21` [TAK-733], for which the Kd in experiment [1] is > 30 µM (inactive); in experiment [2] it was > 30 µM (inactive); in experiment [3] it was 3.35 µM; in experiment [4], > 30 µM (inactive); in experiment [5], > 30 µM (inactive); in experiment [6] it was > 30 µM (inactive).
`COc1cc(Nc2ncc(F)c(Nc3ccc4c(n3)N(COP(=O)(O)O)C(=O)C(C)(C)O4)n2)cc(OC)c1OC` [FOSTAMATINIB]: the Kd in experiment [1], in experiment [2], in experiment [3], in experiment [4], in experiment [5] and in experiment [6] was > 30 µM (inactive) each time.

Values taken from ChEMBL document CHEMBL3991601, “The target landscape of clinical kinase drugs” (Science, 2017).
